Type in all cases: functional
The subject of test [1] is Pseudomonas aeruginosa. Description: Potentiation of chloramphenicol-induced antibacterial activity against Pseudomonas aeruginosa 114228 assessed as fold change in chloramphenicol MIC at 9.8 uM incubated for 18 hrs in presence of chloramphenicol by broth microdilution assay relative to control.
The test system of test [2] is Pseudomonas aeruginosa. Description: Potentiation of doxycycline-induced antibacterial activity against Pseudomonas aeruginosa 259-96918 assessed as fold change in doxycycline MIC at 9.8 uM incubated for 18 hrs in presence of doxycycline by broth microdilution assay relative to control.
Test [3] concerns Pseudomonas aeruginosa. In words: Antibacterial activity against Pseudomonas aeruginosa 260-97103 infected in Galleria mellonella larvae assessed as survival of larvae at 100 mg/kg treated at 3 hrs post-infection in presence of chloramphenicol and measured after 18 hrs relative to control.
For test [4], the system named is Pseudomonas aeruginosa. Description: Antibacterial activity against Pseudomonas aeruginosa 100036 assessed as potentiation of doxycycline-induced antibacterial activity by measuring doxycycline MIC at 9.8 uM incubated for 18 hrs in presence of doxycycline by broth microdilution assay (reference value: 64 ug/ml). Background: In broth dilution the organism is exposed to a series of concentrations in liquid medium.

Test [5] relates to Pseudomonas aeruginosa. Description: Antibacterial activity against Pseudomonas aeruginosa 101243 assessed as fractional inhibitory concentration index incubated for 18 hrs in presence of minocycline by broth microdilution assay.
Test [6] deals with Pseudomonas aeruginosa. Description: Potentiation of chloramphenicol-induced antibacterial activity against Pseudomonas aeruginosa PAO750 harboring MexAB-OprM, MexCD-OprJ, MexEF-OprN, Mex JK, MexXY and the OM protein OpmH deletion mutant assessed as fold change in chloramphenicol MIC at <=9.8 uM incubated for 18 hrs in presence of chloramphenicol by broth microdilution assay. The following applies: dose microM <=9.8.

Test [7] deals with Pseudomonas aeruginosa. Description: Antibacterial activity against Pseudomonas aeruginosa 260-97103 assessed as potentiation of chloramphenicol-induced antibacterial activity by measuring chloramphenicol MIC at 9.8 uM incubated for 18 hrs in presence of chloramphenicol by broth microdilution assay (reference value: 128 ug/ml).
Test [8] deals with Pseudomonas aeruginosa. In words: Antibacterial activity against Pseudomonas aeruginosa 264-101354 assessed as fractional inhibitory concentration incubated for 18 hrs in presence of minocycline by broth microdilution assay.
Another test has as its system Klebsiella pneumoniae. In words: Potentiation of chloramphenicol-induced antibacterial activity against Klebsiella pneumoniae ATCC 16381 assessed as fold change in chloramphenicol MIC at 9.8 uM incubated for 18 hrs in presence of chloramphenicol by broth microdilution assay relative to control.
Test [9] relates to Pseudomonas aeruginosa. Description: Antibacterial activity against Pseudomonas aeruginosa 262-101856 assessed as fractional inhibitory concentration index incubated for 18 hrs in presence of rifampicin by broth microdilution assay.
Test [10] deals with Pseudomonas aeruginosa. Description: Potentiation of doxycycline-induced antibacterial activity against Pseudomonas aeruginosa 100036 assessed as fold change in doxycycline MIC at 9.8 uM incubated for 18 hrs in presence of doxycycline by broth microdilution assay relative to control.
Test [11] concerns Pseudomonas aeruginosa. In words: Antibacterial activity against Pseudomonas aeruginosa 114228 assessed as potentiation of doxycycline-induced antibacterial activity by measuring doxycycline MIC at 9.8 uM incubated for 18 hrs in presence of doxycycline by broth microdilution assay (reference value: 32 ug/ml).
The subject of test [12] is Pseudomonas aeruginosa. Description: Antibacterial activity against Pseudomonas aeruginosa 101243 assessed as fractional inhibitory concentration incubated for 18 hrs in presence of minocycline by broth microdilution assay.
The subject of test [13] is Pseudomonas aeruginosa. In words: Potentiation of chloramphenicol-induced antibacterial activity against Pseudomonas aeruginosa 101243 assessed as fold change in chloramphenicol MIC at 9.8 uM incubated for 18 hrs in presence of chloramphenicol by broth microdilution assay relative to control.
Test [14] deals with Pseudomonas aeruginosa. In words: Antibacterial activity against Pseudomonas aeruginosa 101885 assessed as fractional inhibitory concentration index incubated for 18 hrs in presence of minocycline by broth microdilution assay.
For test [15], the system named is Pseudomonas aeruginosa. Description: Antibacterial activity against Pseudomonas aeruginosa 260-97103 assessed as fractional inhibitory concentration incubated for 18 hrs in presence of tigecycline by broth microdilution assay.
Test [16] concerns Pseudomonas aeruginosa. In words: Antibacterial activity against Pseudomonas aeruginosa 262-101856 assessed as fractional inhibitory concentration index incubated for 18 hrs in presence of tigecycline by broth microdilution assay.
Test [17] deals with Pseudomonas aeruginosa. In words: Antibacterial activity against Pseudomonas aeruginosa 259-96918 assessed as potentiation of doxycycline-induced antibacterial activity by measuring doxycycline MIC at 9.8 uM incubated for 18 hrs in presence of doxycycline by broth microdilution assay (reference value: 32 ug/ml).
The test system of test [18] is Pseudomonas aeruginosa. In words: Antibacterial activity against Pseudomonas aeruginosa 260-97103 infected in Galleria mellonella larvae assessed as mortality of larvae at 100 mg/kg administered at 3 hrs post-infection and measured every 6 hrs for 36 hrs.
The test system of test [19] is Pseudomonas aeruginosa. Description: Antibacterial activity against Pseudomonas aeruginosa 91433 assessed as fractional inhibitory concentration incubated for 18 hrs in presence of minocycline by broth microdilution assay.
The test system of test [20] is Pseudomonas aeruginosa. In words: Antibacterial activity against Pseudomonas aeruginosa 260-97103 assessed as reduction in bacterial growth by measuring chloramphenicol MIC at 2 ug/ml incubated for 18 hrs in presence of chloramphenicol by broth microdilution assay (reference value: 128 ug/ml). The following applies: dose 2 µg/ml.
Test [21] deals with Pseudomonas aeruginosa. In words: Antibacterial activity against Pseudomonas aeruginosa 264-101354 assessed as reduction in bacterial growth by measuring chloramphenicol MIC at 4 ug/ml incubated for 18 hrs in presence of chloramphenicol by broth microdilution assay (reference value: 4096 ug/ml). Particulars: dose 4 µg/ml.
Test [22] deals with Pseudomonas aeruginosa. In words: Antibacterial activity against Pseudomonas aeruginosa 262-101856 assessed as reduction in bacterial growth by measuring doxycycline MIC at 16 ug/ml incubated for 18 hrs in presence of doxycycline by broth microdilution assay (reference value: 1024 ug/ml). Particulars: dose 16 µg/ml.
In test [23] the test system is Pseudomonas aeruginosa. Description: Antibacterial activity against Pseudomonas aeruginosa 259-96918 assessed as potentiation of doxycycline-induced antibacterial activity by measuring doxycycline MIC at 7.6 uM incubated for 18 hrs in presence of doxycycline by broth microdilution assay (reference value: 32 ug/ml).
For test [24], the system named is Pseudomonas aeruginosa. In words: Antibacterial activity against Pseudomonas aeruginosa 262-101856 assessed as potentiation of chloramphenicol-induced antibacterial activity by measuring chloramphenicol MIC at 7.6 uM incubated for 18 hrs in presence of chloramphenicol by broth microdilution assay (reference value: 2048 ug/ml).
Test [25] has as its system Pseudomonas aeruginosa. Description: Potentiation of doxycycline-induced antibacterial activity against Pseudomonas aeruginosa 101885 assessed as fold change in doxycycline MIC at 7.6 uM incubated for 18 hrs in presence of doxycycline by broth microdilution assay relative to control.
For test [26], the system named is Pseudomonas aeruginosa. In words: Antibacterial activity against Pseudomonas aeruginosa 101885 assessed as potentiation of doxycycline-induced antibacterial activity by measuring doxycycline MIC at 7.6 uM incubated for 18 hrs in presence of doxycycline by broth microdilution assay (reference value: 64 ug/ml).
A further test concerns Acinetobacter baumannii. In words: Potentiation of doxycycline-induced antibacterial activity against Acinetobacter baumannii ATCC 17978 assessed as fold change in doxycycline MIC at 7.6 uM incubated for 18 hrs in presence of doxycycline by broth microdilution assay relative to control.
The subject of test [27] is Pseudomonas aeruginosa. In words: Antibacterial activity against Pseudomonas aeruginosa 259-96918 assessed as reduction in bacterial growth by measuring doxycycline MIC at 8 ug/ml incubated for 18 hrs in presence of doxycycline by broth microdilution assay (reference value: 32 ug/ml). Particulars: dose 8 µg/ml.

The structures appear in SMILES notation.

For orientation: MIC means the lowest concentration that inhibits growth of the organism. By mortality is commonly meant the percentage killed.

With `CO[C@H]1/C=C/O[C@@]2(C)Oc3c(C)c(O)c4c(O)c(c(/C=N/N5CCN(Cc6cn(CCCCCCO[C@@H]7[C@@H](O[C@H]8O[C@H](CO)[C@@H](O)[C@H](N)[C@H]8O)[C@H](N)C[C@H](N)[C@H]7O[C@H]7O[C@H](CN)[C@@H](O)C[C@H]7N)nn6)CC5)c(O)c4c3C2=O)NC(=O)/C(C)=C\C=C\[C@H](C)[C@H](O)[C@@H](C)[C@@H](O)[C@@H](C)[C@H](OC(C)=O)[C@@H]1C.Cl.Cl.Cl.Cl.Cl`, the “fold change (FC)” value with Pseudomonas aeruginosa [1] is given as 4; in the test on Pseudomonas aeruginosa [2] it was 4; in the test on Pseudomonas aeruginosa [6], 4; in the test on Klebsiella pneumoniae it was 0; in the test on Pseudomonas aeruginosa [10] it was 4; with Pseudomonas aeruginosa [13] it was 4. In the test with Pseudomonas aeruginosa [3], the survival at 100 mg/kg came to 72%. Moreover, the MIC in the test with Pseudomonas aeruginosa [4] turned out to be 1 µg/mL; in the test with Pseudomonas aeruginosa [7], 2 µg/mL; in the test on Pseudomonas aeruginosa [11], 1 µg/mL; in the test on Pseudomonas aeruginosa [17], 1 µg/mL. The “fractional inhibitory concentration index (FICI)” value with Pseudomonas aeruginosa [5] was less than 0.31; with Pseudomonas aeruginosa [9] it was less than 0.51; in the test with Pseudomonas aeruginosa [14], 0.13; in the test on Pseudomonas aeruginosa [16] it was less than 0.19. The FIC with Pseudomonas aeruginosa [8] is given as 0.063; with Pseudomonas aeruginosa [12] it was less than 0.063; in the test with Pseudomonas aeruginosa [15] it was less than 0.125; with Pseudomonas aeruginosa [19] it was less than 0.125. Besides, in the test with Pseudomonas aeruginosa [18], the mortality at 100 mg/kg is 100%.
For `CO[C@H]1/C=C/O[C@@]2(C)Oc3c(C)c(O)c4c(O)c(c(/C=N/N5CCN(C)CC5)c(O)c4c3C2=O)NC(=O)/C(C)=C\C=C\[C@H](C)[C@H](O)[C@@H](C)[C@@H](O)[C@@H](C)[C@H](OC(C)=O)[C@@H]1C` [RIFAMPIN], the MIC was determined as 128 µg/mL in the test on Pseudomonas aeruginosa [20], 4100 µg/mL with Pseudomonas aeruginosa [21] and 1020 µg/mL in the test on Pseudomonas aeruginosa [22].
Consider `CO[C@H]1/C=C/O[C@@]2(C)Oc3c(C)c(O)c4c(O)c(c(/C=N/N5CCN(Cc6cn(CCCCCCCCCCCCO[C@@H]7[C@@H](O[C@H]8O[C@H](CO)[C@@H](O)[C@H](N)[C@H]8O)[C@H](N)C[C@H](N)[C@H]7O[C@H]7O[C@H](CN)[C@@H](O)C[C@H]7N)nn6)CC5)c(O)c4c3C2=O)NC(=O)/C(C)=C\C=C\[C@H](C)[C@H](O)[C@@H](C)[C@@H](O)[C@@H](C)[C@H](OC(C)=O)[C@@H]1C.O=C(O)C(F)(F)F.O=C(O)C(F)(F)F.O=C(O)C(F)(F)F.O=C(O)C(F)(F)F.O=C(O)C(F)(F)F`, for which the MIC with Pseudomonas aeruginosa [23] came to 0.25 µg/mL; in the test with Pseudomonas aeruginosa [24] it was 128 µg/mL; in the test with Pseudomonas aeruginosa [26] it was 2 µg/mL. In addition, the results for the “fold change (FC)” value in the test on Pseudomonas aeruginosa [25] and in the test with Acinetobacter baumannii were 4 and 0, respectively.
Take `NC[C@H]1O[C@H](O[C@H]2[C@H](O)[C@@H](O[C@H]3O[C@H](CO)[C@@H](O)[C@H](N)[C@H]3O)[C@H](N)C[C@@H]2N)[C@H](N)C[C@@H]1O` [TOBRAMYCIN]: the minimum inhibitory concentration (MIC) with Pseudomonas aeruginosa [27] turned out to be 32 µg/mL.

Values taken from ChEMBL document CHEMBL4715829, “Heterodimeric Rifampicin-Tobramycin conjugates break intrinsic resistance of Pseudomonas aeruginosa to doxycycline and chloramphenicol in vitro and in a Galleria mellonella in vivo model” (Eur J Med Chem, 2019).
